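A five-concentration, 48-hour dose response in 96-well plates underlies each endpoint, interpolated linearly between surrounding concentrations. The concentration for full growth arrest is given as TGI.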
Tests used:
Experiment in all cases: inhibition of tumour cell growth, NCI panel, 48 h
HCC-2998 colon = test system: HCC-2998 colon
KM12 colon = test system: KM12 colon
SNB-75 CNS = test system: SNB-75 CNS
CCRF-CEM leukemia = test system: CCRF-CEM leukemia
UACC-62 melanoma = test system: UACC-62 melanoma
SR leukemia = test system: SR leukemia
HCT-15 colon = test system: HCT-15 colon
M14 melanoma = test system: M14 melanoma
SW-620 colon = test system: SW-620 colon
NCI-H23 lung = test system: NCI-H23 lung
HT29 colon = test system: HT29 colon
SF-295 CNS = test system: SF-295 CNS
DU-145 prostate = test system: DU-145 prostate
K-562 leukemia = test system: K-562 leukemia
MOLT-4 leukemia = test system: MOLT-4 leukemia
A549 NSCLC = test system: A549 NSCLC
IGROV1 ovarian = test system: IGROV1 ovarian
786-0 renal = test system: 786-0 renal
COLO 205 colon = test system: COLO 205 colon
PC-3 prostate = test system: PC-3 prostate
MDA-N = test system: MDA-N
SK-MEL-5 melanoma = test system: SK-MEL-5 melanoma
MALME-3M melanoma = test system: MALME-3M melanoma
RPMI-8226 leukemia = test system: RPMI-8226 leukemia
SK-MEL-28 melanoma = test system: SK-MEL-28 melanoma
HL-60(TB) leukemia = test system: HL-60(TB) leukemia
MCF7 breast = test system: MCF7 breast
RXF 393 renal = test system: RXF 393 renal
OVCAR-8 ovarian = test system: OVCAR-8 ovarian
TK-10 renal = test system: TK-10 renal
UACC-257 melanoma = test system: UACC-257 melanoma
T-47D breast = test system: T-47D breast
EKVX NSCLC = test system: EKVX NSCLC
SK-OV-3 ovarian = test system: SK-OV-3 ovarian
HOP-62 NSCLC = test system: HOP-62 NSCLC
CAKI-1 renal = test system: CAKI-1 renal
SN12C renal = test system: SN12C renal
MDA-MB-231 breast = test system: MDA-MB-231 breast
OVCAR-4 ovarian = test system: OVCAR-4 ovarian
HCT-116 colon = test system: HCT-116 colon
HS 578T breast = test system: HS 578T breast
NCI-H226 lung = test system: NCI-H226 lung
SK-MEL-2 melanoma = test system: SK-MEL-2 melanoma
A498 renal = test system: A498 renal
U251 CNS = test system: U251 CNS
NCI-H522 lung = test system: NCI-H522 lung
LOX IMVI melanoma = test system: LOX IMVI melanoma
OVCAR-5 ovarian = test system: OVCAR-5 ovarian
SNB-19 CNS = test system: SNB-19 CNS
ACHN renal = test system: ACHN renal
NCI-H460 lung = test system: NCI-H460 lung
UO-31 renal = test system: UO-31 renal
HOP-92 NSCLC = test system: HOP-92 NSCLC
OVCAR-3 ovarian = test system: OVCAR-3 ovarian
NCI/ADR-RES ovarian = test system: NCI/ADR-RES ovarian
MDA-MB-435 = test system: MDA-MB-435
SF-268 CNS = test system: SF-268 CNS
SF-539 CNS = test system: SF-539 CNS

## CCC1(c2ccccc2)Sc2ccccc2-n2cccc2C1=O (stereo not drawn)
HCC-2998 colon
  TGI: > 10 µM
KM12 colon
  TGI: > 10 µM
SNB-75 CNS
  TGI: > 10 µM
CCRF-CEM leukemia
  TGI: > 10 µM
UACC-62 melanoma
  TGI: > 10 µM
SR leukemia
  TGI: > 10 µM
HCT-15 colon
  TGI: > 10 µM
M14 melanoma
  TGI: > 10 µM
SW-620 colon
  TGI: > 10 µM
NCI-H23 lung
  TGI: > 10 µM
HT29 colon
  TGI: > 10 µM
SF-295 CNS
  TGI: > 10 µM
DU-145 prostate
  TGI: > 10 µM
K-562 leukemia
  TGI: > 10 µM
MOLT-4 leukemia
  TGI: > 10 µM
A549 NSCLC
  TGI: > 10 µM
IGROV1 ovarian
  TGI: > 10 µM
786-0 renal
  TGI: > 10 µM
COLO 205 colon
  TGI: > 10 µM
PC-3 prostate
  TGI: > 10 µM
MDA-N
  TGI: > 10 µM
SK-MEL-5 melanoma
  TGI: > 10 µM
MALME-3M melanoma
  TGI: > 10 µM
RPMI-8226 leukemia
  TGI: > 10 µM
SK-MEL-28 melanoma
  TGI: > 10 µM
HL-60(TB) leukemia
  TGI: > 10 µM
MCF7 breast
  TGI: > 10 µM
RXF 393 renal
  TGI: > 10 µM
OVCAR-8 ovarian
  TGI: > 10 µM
TK-10 renal
  TGI: > 10 µM
UACC-257 melanoma
  TGI: > 10 µM
T-47D breast
  TGI: > 10 µM
EKVX NSCLC
  TGI: > 10 µM
SK-OV-3 ovarian
  TGI: > 10 µM
HOP-62 NSCLC
  TGI: > 10 µM
CAKI-1 renal
  TGI: > 10 µM
SN12C renal
  TGI: > 10 µM
MDA-MB-231 breast
  TGI: > 10 µM

## COP(=O)(OC)C(Cc1cn(C(C)=O)c2ccccc12)C(=O)O (stereo not drawn)
HCC-2998 colon
  TGI: > 100 µM
SNB-75 CNS
  TGI: > 100 µM
OVCAR-4 ovarian
  TGI: > 100 µM
CCRF-CEM leukemia
  TGI: > 100 µM
HCT-116 colon
  TGI: > 100 µM
HS 578T breast
  TGI: > 100 µM
NCI-H226 lung
  TGI: > 100 µM
SK-MEL-2 melanoma
  TGI: > 100 µM
SR leukemia
  TGI: > 100 µM
A498 renal
  TGI: > 100 µM
HCT-15 colon
  TGI: > 100 µM
M14 melanoma
  TGI: > 100 µM
U251 CNS
  TGI: > 100 µM
SW-620 colon
  TGI: > 100 µM
NCI-H23 lung
  TGI: > 100 µM
HT29 colon
  TGI: > 100 µM
SF-295 CNS
  TGI: > 100 µM
NCI-H522 lung
  TGI: > 100 µM
DU-145 prostate
  TGI: > 100 µM
K-562 leukemia
  TGI: > 100 µM
MOLT-4 leukemia
  TGI: > 100 µM
A549 NSCLC
  TGI: > 100 µM
IGROV1 ovarian
  TGI: > 100 µM
COLO 205 colon
  TGI: > 100 µM
LOX IMVI melanoma
  TGI: > 100 µM
PC-3 prostate
  TGI: > 100 µM
OVCAR-5 ovarian
  TGI: > 100 µM
SNB-19 CNS
  TGI: > 100 µM
MDA-N
  TGI: > 100 µM
ACHN renal
  TGI: > 100 µM
NCI-H460 lung
  TGI: > 100 µM
SK-MEL-5 melanoma
  TGI: > 100 µM
RPMI-8226 leukemia
  TGI: > 100 µM
SK-MEL-28 melanoma
  TGI: > 100 µM
UO-31 renal
  TGI: > 100 µM
HL-60(TB) leukemia
  TGI: > 100 µM
MCF7 breast
  TGI: > 100 µM
OVCAR-8 ovarian
  TGI: > 100 µM
TK-10 renal
  TGI: > 100 µM
UACC-257 melanoma
  TGI: > 100 µM
T-47D breast
  TGI: > 100 µM
SK-OV-3 ovarian
  TGI: > 100 µM
HOP-92 NSCLC
  TGI: > 100 µM
HOP-62 NSCLC
  TGI: > 100 µM
CAKI-1 renal
  TGI: > 100 µM
OVCAR-3 ovarian
  TGI: > 100 µM
NCI/ADR-RES ovarian
  TGI: > 100 µM
SN12C renal
  TGI: > 100 µM
MDA-MB-231 breast
  TGI: > 100 µM

## CC1(C)N/C(=C\C=O)C(C)(C)N1O
HCC-2998 colon
  TGI: > 100 µM
KM12 colon
  TGI: > 100 µM
OVCAR-4 ovarian
  TGI: > 100 µM
CCRF-CEM leukemia
  TGI: > 100 µM
HCT-116 colon
  TGI: > 100 µM
HS 578T breast
  TGI: > 100 µM
NCI-H226 lung
  TGI: > 100 µM
SK-MEL-2 melanoma
  TGI: > 100 µM
MDA-MB-435
  TGI: > 100 µM
SF-268 CNS
  TGI: > 100 µM
UACC-62 melanoma
  TGI: > 100 µM
SR leukemia
  TGI: > 100 µM
HCT-15 colon
  TGI: > 100 µM
M14 melanoma
  TGI: > 100 µM
U251 CNS
  TGI: > 100 µM
SW-620 colon
  TGI: > 100 µM
NCI-H23 lung
  TGI: > 100 µM
HT29 colon
  TGI: > 100 µM
SF-295 CNS
  TGI: > 100 µM
DU-145 prostate
  TGI: > 100 µM
K-562 leukemia
  TGI: > 100 µM
MOLT-4 leukemia
  TGI: > 100 µM
A549 NSCLC
  TGI: > 100 µM
IGROV1 ovarian
  TGI: > 100 µM
COLO 205 colon
  TGI: > 100 µM
LOX IMVI melanoma
  TGI: > 100 µM
PC-3 prostate
  TGI: > 100 µM
OVCAR-5 ovarian
  TGI: > 100 µM
SNB-19 CNS
  TGI: > 100 µM
MDA-N
  TGI: > 100 µM
ACHN renal
  TGI: > 100 µM
NCI-H460 lung
  TGI: > 100 µM
SK-MEL-5 melanoma
  TGI: > 100 µM
MALME-3M melanoma
  TGI: > 100 µM
RPMI-8226 leukemia
  TGI: > 100 µM
SK-MEL-28 melanoma
  TGI: > 100 µM
UO-31 renal
  TGI: > 100 µM
HL-60(TB) leukemia
  TGI: > 100 µM
MCF7 breast
  TGI: > 100 µM
RXF 393 renal
  TGI: > 100 µM
OVCAR-8 ovarian
  TGI: > 100 µM
TK-10 renal
  TGI: > 100 µM
UACC-257 melanoma
  TGI: > 100 µM
EKVX NSCLC
  TGI: > 100 µM
SK-OV-3 ovarian
  TGI: > 100 µM
HOP-92 NSCLC
  TGI: > 100 µM
SF-539 CNS
  TGI: > 100 µM
HOP-62 NSCLC
  TGI: > 100 µM
CAKI-1 renal
  TGI: > 100 µM
OVCAR-3 ovarian
  TGI: > 100 µM
NCI/ADR-RES ovarian
  TGI: > 100 µM
SN12C renal
  TGI: > 100 µM
MDA-MB-231 breast
  TGI: > 100 µM

## O=C1NC(Nc2ccccc2)=NC(C(F)(F)F)(C(F)(F)F)N1
HCC-2998 colon
  TGI: > 100 µM
KM12 colon
  TGI: > 100 µM
SNB-75 CNS
  TGI: 87.6 µM
OVCAR-4 ovarian
  TGI: > 100 µM
CCRF-CEM leukemia
  TGI: > 100 µM
HCT-116 colon
  TGI: > 100 µM
HS 578T breast
  TGI: > 100 µM
NCI-H226 lung
  TGI: > 100 µM
SK-MEL-2 melanoma
  TGI: 75.4 µM
MDA-MB-435
  TGI: > 100 µM
SF-268 CNS
  TGI: > 100 µM
UACC-62 melanoma
  TGI: > 100 µM
SR leukemia
  TGI: > 100 µM
HCT-15 colon
  TGI: > 100 µM
M14 melanoma
  TGI: 83.5 µM
U251 CNS
  TGI: 87.9 µM
SW-620 colon
  TGI: > 100 µM
NCI-H23 lung
  TGI: > 100 µM
HT29 colon
  TGI: > 100 µM
SF-295 CNS
  TGI: > 100 µM
DU-145 prostate
  TGI: > 100 µM
K-562 leukemia
  TGI: > 100 µM
MOLT-4 leukemia
  TGI: > 100 µM
A549 NSCLC
  TGI: > 100 µM
IGROV1 ovarian
  TGI: > 100 µM
786-0 renal
  TGI: > 100 µM
COLO 205 colon
  TGI: > 100 µM
LOX IMVI melanoma
  TGI: > 100 µM
PC-3 prostate
  TGI: > 100 µM
OVCAR-5 ovarian
  TGI: > 100 µM
MDA-N
  TGI: > 100 µM
ACHN renal
  TGI: > 100 µM
NCI-H460 lung
  TGI: > 100 µM
SK-MEL-5 melanoma
  TGI: 79.6 µM
MALME-3M melanoma
  TGI: > 100 µM
RPMI-8226 leukemia
  TGI: > 100 µM
SK-MEL-28 melanoma
  TGI: > 100 µM
UO-31 renal
  TGI: > 100 µM
HL-60(TB) leukemia
  TGI: > 100 µM
MCF7 breast
  TGI: > 100 µM
OVCAR-8 ovarian
  TGI: > 100 µM
TK-10 renal
  TGI: > 100 µM
UACC-257 melanoma
  TGI: > 100 µM
T-47D breast
  TGI: > 100 µM
EKVX NSCLC
  TGI: > 100 µM
SK-OV-3 ovarian
  TGI: > 100 µM
HOP-92 NSCLC
  TGI: 53.4 µM
SF-539 CNS
  TGI: > 100 µM
HOP-62 NSCLC
  TGI: > 100 µM
OVCAR-3 ovarian
  TGI: > 100 µM
NCI/ADR-RES ovarian
  TGI: > 100 µM
SN12C renal
  TGI: > 100 µM
MDA-MB-231 breast
  TGI: > 100 µM

Reference: PubChem BioAssay (NCI)
